In data set [1] the test system is B lymphocytes in spleen cell suspensions. To be noted: for effect on B lymphocyte proportion / lymphocyte population: arthritic rats.
Data set [2] concerns established adjuvant-induced arthritis in rats. The experiment in a line: Established adjuvant-induced arthritis in rats (therapeutic, paw volume). It counts as in vivo, Charles River Lewis male rats. To be noted: Rattus norvegicus.
The subject of data set [3] is non-established adjuvant-induced arthritis in rats. The experiment in a line: Non-established adjuvant-induced arthritis in rats (prevention of development, paw volume). The format is in vivo, Charles River Lewis male rats. To be noted: for ED50: Rattus norvegicus, read-out: ED50% non-established arthritis; for effectiveness in preventing development of arthritis compared with treating established arthritis: non-established vs established arthritis, rats. The procedure:
Non-Established Adjuvant-Induces Arthritis in Rats
A test used primarily to determine the effects of compounds on the immunological reactions involved in the induction process and to prevent the development of arthritis.
Charles River Lewis male rats (130-150 grams) are injected subcutaneously in the plantar area of the right hind paw with 0.1 ml of adjuvant (Difco heat-killed, lyophilized Mycobacterium butyricum suspended in mineral oil 5 mg/ml). 40 Non-arthritic controls are injected with mineral oil. Groups of 20 rats are given single, daily oral doses of compound (in PVA-Acacia vehicle, 10 ml/kg) or vehicle by gavage beginning immediately following paw injection for a total of 14 doses. The paw volume of the uninjected (left) hind paw is measured 24 hours after the last dose using a Ugo Basile Volume differential meter Model 7101. The ED50% decrease from control is determined as described above.

Data set [4] has as its system plaque forming (antibody producing) spleen cells of rats with adjuvant-induced arthritis. The experiment in a line: Modified Jerne spleen cell hemolytic plaque assay. The format is in vivo, rats (Charles River Lewis). To be noted: for effect on number of plaque forming cells (PFC): arthritic rats. The procedure: MODIFIED JERNE SPLEEN CELL HEMOLYTIC PLAQUE ASSAY
A modification of the technique described by N. K. Jerne and A. A. Nordin (Science, 140, 450, 1963) was used in these studies. Rats (Charles River Lewis) with adjuvant-induced arthritis (and non-arthritic controls) were dosed orally ounce per day with PVA-Acacia vehicle* or compounds in vehicle from day 14 (following adjuvant injection) to day 20. The animals were sensitized with sheep red blood cells (SRBC) (0.2 ml of a 10% suspension=[…]) I.V. on day 17. The SRBC (Microbiological Associates) were washed 3 times in 0.9% sodium chloride solution prior to injection. On day 21 the rats were anesthetized with 1% sodium pentobarbital I.P. and the spleens were removed. Each spleen was placed on a stainless steel screen suspended over a plastic beaker in an ice bath and gently macerated with a glass syringe plunger. The cells were washed through the mesh into the beaker using a pasteur pipette to apply about 10 ml of Eagle's Minimal Essential Medium (MEM) during the maceration process until only fibrous material remained on the screen. Large particles were allowed to settle out for about 5 minutes and about 5 ml of supernatant was transferred to a plastic tube. Dilutions of 1:10 and 1:20 were made in cold MEM.
Plating: 2 ml of 0.7% Agarose (1.4% diluted 1:2 with 2X Eagles MEM) and 0.2 ml of a 10% SRBC suspension were pre-warmed in a 45° C. water bath. 20 Lambda of spleen cell dilution were added, mixed gently and poured into a supporting layer of 2 ml of 1.4% Agarose in a 60×15 mm plastic petri plate. Plates were incubated at 37° C. for 1.5 hours in a humidified incubator. 1.5 ml of guinea pig complement (diluted 1:10 with MEM) was added and incubation was continued for 1 hour longer.
Zones of hemolysis (plaques) per plate were counted without magnification against a diffuse light source. Assuming each plaque to have resulted from hemolysin produced by a single spleen cell, the number of plaque forming cells (PFC) per million spleen cells was calculated for each dilution. The statistical calculations (mean, standard error and "t" test) included the PFC/million count for each dilution of each spleen.

For data set [5], the system named is immunologic reactions / rheumatoid arthritis. To be noted: background; cited from earlier work.
Data set [6] deals with phenylquinone writhing syndrome. In words: Phenylquinone writhing test (analgesic activity). It counts as in vivo, female white mice. To be noted: oral; for ED50: Mus musculus, 1% methylcellulose, Tables VIII and IX, read-out: ED50 (effective analgesic dose for 50% of the mice); for peak time: time of peak action. The procedure: Phenylquinone Writhing Test A standard procedure for detecting and comparing the analgesic activity of compounds in this series for which there is good correlation with human efficacy is the standard phenylquinone writhing test modified from Siegmund, et al., Proc. Soc. Exp. Biol. Med. 95, 729 (1957). […] Aqueous (0.01% phenyl-p-benzoquinone) phenylquinone was injected intraperitoneally at 24 minutes later using 0.20 ml per mouse. […] The effective analgesic dose for 50% of the mice (ED50) was calculated by the moving average method of Thompson, W. R., Bact. Rev. 11, 115-145 (1947); also time of peak action was determined for many of the compounds.

[7] abbreviates: po, Table V, read-out: ED50% established arthritis.
Setting [8] is: po, established arthritis, 7 daily doses, ED50% decrease from control paw volume, Tables I-III, read-out: Adjuvant Arthritis (ED50%).
The mark [9] stands for this setting: Table V, oral, 14 daily doses from adjuvant injection.

Where two headings read alike, the source gives them in different places.

`FC(F)C(F)(F)Sc1nc(-c2ccc(Cl)cc2)c(-c2ccc(Cl)cc2)[nH]1` [Example 39]: the “mean % B cells” value was 37% in data set [1] (daily oral dose 0.2 mg/kg, pooled data from 2 experiments (N = 10)) and 35% in data set [1] (daily oral dose 2.0 mg/kg, pooled data from 2 experiments (N = 10)). The 50% effective dose (ED50) in data set [2] (setting [7]) worked out at 0.2 mg/kg; in data set [2] (setting [8]), 0.3 mg/kg; in data set [3] (setting [9]), 0.06 mg/kg. In addition, the “mean plaque forming cells per million spleen cells (N = 20)” value in data set [4] (daily oral dose 0.1 mg/kg) was 788 cells per million spleen cells; in data set [4] (daily oral dose 1.0 mg/kg), 488 cells per million spleen cells.
`CC(C)Cc1ccc(C(C)C(=O)O)cc1` (stereo not drawn) [ibuprofen]: the “effect on immunologic reactions in rheumatoid inflammation” value (“effect on immunologic reactions” below) in data set [5] was “have no effect on these immunologic reactions”.
In the case of `COc1ccc2c(c1)c(CC(=O)O)c(C)n2C(=O)c1ccc(Cl)cc1` [Indomethacin, reference compound], the “effect on B lymphocyte proportion / lymphocyte population” value in data set [1] is given as “had no effect on the lymphocyte population”. Moreover, in data set [1] (daily oral dose 0.5 mg/kg), the “mean % B cells” value came to 57%. In addition, the ED50 is 0.3 mg/kg in data set [2] (Table V, oral, read-out: ED50% established arthritis) and 3 mg/kg in data set [3] (po). Also, the “effectiveness in preventing development of arthritis compared with treating established arthritis” value in data set [3] is recorded as “less effective in preventing the development of arthritis in rats than in treating the inflammation in established arthritis”. Also, in data set [5], the “effect on immunologic reactions” value is given as “have no effect on these immunologic reactions”. The “effect on number of plaque forming cells (PFC)” value in data set [4] is given as “had no effect on the number of PFC”. Also, the “mean plaque forming cells per million spleen cells (N = 20)” value in data set [4] (daily oral dose 1.0 mg/kg) is given as 694 cells per million spleen cells.
For `O=S(=O)(c1nc(-c2ccc(Cl)cc2)c(-c2ccccc2)[nH]1)C(F)(F)C(F)F` [Example 86, 4(or 5)-(4-chlorophenyl)-5(or 4)-phenyl-2-(1,1,2,2-tetrafluoroethylsulfonyl)imidazole], the “mean % B cells” value in data set [1] (daily oral dose 0.1 mg/kg) is 48%; in data set [1] (daily oral dose 1.0 mg/kg) it was 42%. For the same molecule, the ED50 in data set [2] (setting [8]) amounted to 0.065 mg/kg. The “mean plaque forming cells per million spleen cells (N = 20)” value is recorded as 412 cells per million spleen cells in data set [4] (daily oral dose 0.07 mg/kg) and 367 cells per million spleen cells in data set [4] (daily oral dose 0.7 mg/kg).
Turning to `FC(F)C(F)(F)Sc1nc(-c2ccccc2)c(-c2ccccc2)[nH]1` [Example 18, 4,5-Diphenyl-2-(1,1,2,2-tetrafluoroethylthio)imidazole], the “mean % B cells” value in data set [1] (daily oral dose 1.5 mg/kg, pooled data from 2 experiments (N = 10)) is 37%; in data set [1] (daily oral dose 15 mg/kg, pooled data from 2 experiments (N = 10)) it was 34%. Further, the ED50 is 0.75 mg/kg in data set [2] (setting [7]), 0.75 mg/kg in data set [2] (setting [8]) and 2.3 mg/kg in data set [3] (setting [9]). In addition, the “mean plaque forming cells per million spleen cells (N = 20)” value in data set [4] (daily oral dose 1.5 mg/kg) was 197 cells per million spleen cells; in data set [4] (daily oral dose 15 mg/kg) it was 320 cells per million spleen cells.
Regarding `O=S(=O)(c1nc(-c2ccc(F)cc2)c(-c2ccc(F)cc2)[nH]1)C(F)(F)C(F)F` [Example 71, 4,5-bis(4-fluorophenyl)-2-(1,1,2,2-tetrafluoroethylsulfonyl)imidazole], the “mean % B cells” value came to 38% in data set [1] (daily oral dose 0.03 mg/kg, pooled data from 3 experiments (N = 15)) and 41% in data set [1] (daily oral dose 0.3 mg/kg, pooled data from 3 experiments (N = 15)). The ED50 was 0.03 mg/kg in data set [2] (setting [7]), 0.025 mg/kg in data set [2] (setting [8]) and 0.03 mg/kg in data set [3] (setting [9]). Moreover, the “mean plaque forming cells per million spleen cells (N = 20)” value is 499 cells per million spleen cells in data set [4] (daily oral dose 0.03 mg/kg) and 439 cells per million spleen cells in data set [4] (daily oral dose 0.3 mg/kg).
`COc1ccc(-c2nc(S(=O)(=O)CC(F)(F)F)[nH]c2-c2ccc(OC)cc2)cc1` [Example 6, 4,5-bis(4-Methoxyphenyl)-2-(2,2,2-trifluoroethylsulfonyl)-imidazole]: the ED50 in data set [6] is 0.58 mg/kg; in data set [2] (setting [8]) it was 3.8 mg/kg. Moreover, in data set [6], the peak time is given as 60 min.
`COc1ccc(-c2[nH]c(S(=O)(=O)C(F)(F)C(F)F)nc2-c2ccccc2Cl)cc1` [Example 83]: the values for the ED50 in data set [6] and in data set [2] (setting [8]) were 0.56 mg/kg and 7.2 mg/kg, respectively. In data set [6], the peak time is 60 min.
As for `CC(=O)Oc1ccccc1C(=O)O` [aspirin], the “effect on immunologic reactions” value in data set [5] is on record as “have no effect on these immunologic reactions”.
Turning to `COc1ccc(-c2[nH]c(S(=O)(=O)C(F)(F)C(F)F)nc2-c2ccc(F)cc2)cc1` [Example 133], the values for the ED50 in data set [6] and in data set [2] (setting [8]) were 0.27 mg/kg and 2.2 mg/kg, respectively.
Regarding `COc1ccc(-c2nc([S+]([O-])CC(F)(F)F)[nH]c2-c2ccc(OC)cc2)cc1` (stereo not drawn) [Example 5, 4,5-bis(4-Methoxyphenyl)-2-(2,2,2-trifluoroethylsulfinyl)-imidazole], in data set [6], the 50% effective dose (ED50) was 0.86 mg/kg and the peak time stood at 60 min. Further, the ED50 in data set [2] (setting [8]) worked out at 10 mg/kg.
The corresponding values for `COc1ccc(-c2nc(S(=O)(=O)C(F)(F)CF)[nH]c2-c2ccc(OC)cc2)cc1` [Example 125, 4,5-bis(4-methoxyphenyl)-2-(1,1,2-trifluoroethylsulfonyl)imidazole] are 0.25 mg/kg, 160 min and 5 mg/kg.
As for `CCCCC1C(=O)N(c2ccccc2)N(c2ccccc2)C1=O` [Phenylbutazone], in data set [1] (daily oral dose 20 mg/kg), the “mean % B cells” value was determined as 53%. Besides, the 50% effective dose (ED50) in data set [2] (setting [7]) stood at 10 mg/kg; in data set [3] (setting [9]), 35 mg/kg. Moreover, the “effectiveness in preventing development of arthritis compared with treating established arthritis” value in data set [3] is “less effective in preventing the development of arthritis in rats than in treating the inflammation in established arthritis”. The “effect on immunologic reactions” value in data set [5] was “have no effect on these immunologic reactions”.
For `O=S(=O)(c1nc(-c2ccccc2)c(-c2ccccc2)[nH]1)C(F)(F)C(F)F` [Example 60, 4,5-diphenyl-2-(1,1,2,2-tetrafluoroethylsulfonyl)imidazole], in data set [6], the ED50 was 0.48 mg/kg and the peak time turned out to be 120 min. In data set [2] (setting [8]), the ED50 was 0.13 mg/kg.
`O=P1(N(CCCl)CCCl)NCCCO1` (stereo not drawn) [Cyclophosphamide, reference compound]: the “effect on B lymphocyte proportion / lymphocyte population” value in data set [1] was “reduced the B lymphocyte proportion to below normal”. Also, the “mean % B cells” value in data set [1] (daily oral dose 5 mg/kg) was 25%. The ED50 in data set [2] (setting [7]) is 10 mg/kg. Moreover, the 50% effective dose (ED50) in data set [3] (setting [9]) was 1.5 mg/kg. Besides, the “effectiveness in preventing development of arthritis compared with treating established arthritis” value in data set [3] was “more effective in preventing the development of arthritis in rats than in treating established arthritis in rats”. Also, in data set [5], the “effectiveness in treatment of rheumatoid arthritis” value is reported as “effective in the treatment of rheumatoid arthritis” and the “toxicity for wide-spread use” value is recorded as “too toxic for wide-spread use”. For the same molecule, in data set [4], the “effect on number of plaque forming cells (PFC)” value was “reduced the PFC far below normal”. Also, the “mean plaque forming cells per million spleen cells (N = 20)” value in data set [4] (daily oral dose 5.0 mg/kg) is 25 cells per million spleen cells.
On to `COc1ccc(-c2nc([S+]([O-])C(F)(F)C(F)F)[nH]c2-c2ccc(OC)cc2)cc1` (stereo not drawn) [Example 65], for which the values for the ED50 in data set [6] and in data set [2] (setting [8]) were 0.8 mg/kg and 2.4 mg/kg, respectively.

Source of the values: patent US4190666A, “Anti-inflammatory 4,5-diarly-2-(substituted-thio)imidazoles and their corresponding sulfoxides and sulfones” (E. I. Du Pont de Nemours and Company, priority 1978, dated 1980).
